Key:
Type in all cases: functional
[1] = system: SK-MEL-28; experiment: Cytotoxicity against Homo sapiens (human) SK-MEL-28 cells after 48 hr by sulforhodamine B assay; conditions: SK-MEL-28, 48 h; for TGI: read-out: pTGI (converted)
[2] = system: A549; experiment: Cytotoxicity against Homo sapiens (human) A549 cells after 48 hr by sulforhodamine B assay; conditions: A549, 48 h; for TGI: read-out: pTGI (converted)
[3] = system: EKVX; experiment: Cytotoxicity against Homo sapiens (human) EKVX cells after 48 hr by sulforhodamine B assay; conditions: for TGI: read-out: pTGI (converted)
[4] = system: DU-145; experiment: Cytotoxicity against Homo sapiens (human) DU145 cells after 48 hr by sulforhodamine B assay; conditions: DU-145, 48 h; for TGI: read-out: pTGI (converted)
[5] = system: SF-268; experiment: Cytotoxicity against Homo sapiens (human) SF268 cells after 48 hr by sulforhodamine B assay; conditions: SF-268, 48 h; for TGI: read-out: pTGI (converted)
[6] = system: K562; experiment: Cytotoxicity against Homo sapiens (human) K562 cells after 48 hr by sulforhodamine B assay; conditions: K562, 48 h; for TGI: read-out: pTGI (converted)
[7] = system: RXF 393; experiment: Cytotoxicity against Homo sapiens (human) RXF393 cells after 48 hr by sulforhodamine B assay; conditions: RXF 393, 48 h; for TGI: read-out: pTGI (converted)
[8] = system: TK-10; experiment: Cytotoxicity against Homo sapiens (human) TK10 cells after 48 hr by sulforhodamine B assay; conditions: TK-10, 48 h; for TGI: read-out: pTGI (converted)
[9] = system: T47D; experiment: Cytotoxicity against Homo sapiens (human) T47D cells after 48 hr by sulforhodamine B assay; conditions: for TGI: read-out: pTGI (converted)
[10] = system: NCI-H460; experiment: Cytotoxicity against Homo sapiens (human) NCI-H460 cells after 48 hr by sulforhodamine B assay; conditions: NCI-H460, 48 h; for TGI: read-out: pTGI (converted)
[11] = Cytotoxicity against Homo sapiens (human) NCI-ADR-RES cells after 48 hr by sulforhodamine B assay; conditions: for TGI: read-out: pTGI (converted)
[12] = system: ACHN; experiment: Cytotoxicity against Homo sapiens (human) ACHN cells after 48 hr by sulforhodamine B assay; conditions: for TGI: read-out: pTGI (converted)
[13] = system: NCI-H226; experiment: Cytotoxicity against Homo sapiens (human) NCI-H226 cells after 48 hr by sulforhodamine B assay; conditions: NCI-H226, 48 h; for TGI: read-out: pTGI (converted)
[14] = system: PC-3; experiment: Cytotoxicity against Homo sapiens (human) PC3 cells after 48 hr by sulforhodamine B assay; conditions: PC-3, 48 h; for TGI: read-out: pTGI (converted)
[15] = system: SR; experiment: Cytotoxicity against Homo sapiens (human) SR cells after 48 hr by sulforhodamine B assay; conditions: for TGI: read-out: pTGI
[16] = system: NCI-H322M; experiment: Cytotoxicity against Homo sapiens (human) NCI-H322M cells after 48 hr by sulforhodamine B assay; conditions: for TGI: read-out: pTGI (converted)
[17] = system: UO-31; experiment: Cytotoxicity against Homo sapiens (human) UO31 cells after 48 hr by sulforhodamine B assay; conditions: UO-31, 48 h; for TGI: read-out: pTGI
[18] = system: UACC-257; experiment: Cytotoxicity against Homo sapiens (human) UACC257 cells after 48 hr by sulforhodamine B assay; conditions: UACC-257, 48 h; for TGI: read-out: pTGI (converted)
[19] = system: UACC-62; experiment: Cytotoxicity against Homo sapiens (human) UACC62 cells after 48 hr by sulforhodamine B assay; conditions: UACC-62, 48 h; for TGI: read-out: pTGI (converted)
[20] = system: SF-295; experiment: Cytotoxicity against Homo sapiens (human) SF295 cells after 48 hr by sulforhodamine B assay; conditions: SF-295, 48 h; for TGI: read-out: pTGI (converted)
[21] = system: OVCAR-4; experiment: Cytotoxicity against Homo sapiens (human) OVCAR4 cells after 48 hr by sulforhodamine B assay; conditions: OVCAR-4, 48 h; for TGI: read-out: pTGI (converted)
[22] = system: HCT-15; experiment: Cytotoxicity against Homo sapiens (human) HCT15 cells after 48 hr by sulforhodamine B assay; conditions: HCT-15, 48 h; for TGI: read-out: pTGI (converted)
[23] = system: U-251; experiment: Cytotoxicity against Homo sapiens (human) U251 cells after 48 hr by sulforhodamine B assay; conditions: U-251, 48 h; for TGI: read-out: pTGI (converted)
[24] = system: OVCAR-5; experiment: Cytotoxicity against Homo sapiens (human) OVCAR5 cells after 48 hr by sulforhodamine B assay; conditions: OVCAR-5, 48 h; for TGI: read-out: pTGI (converted)
[25] = system: LOX IMVI; experiment: Cytotoxicity against Homo sapiens (human) LOXIMVI cells after 48 hr by sulforhodamine B assay; conditions: for TGI: read-out: pTGI (converted)
[26] = system: SF-539; experiment: Cytotoxicity against Homo sapiens (human) SF539 cells after 48 hr by sulforhodamine B assay; conditions: SF-539, 48 h; for TGI: read-out: pTGI (converted)
[27] = system: SK-MEL-2; experiment: Cytotoxicity against Homo sapiens (human) SK-MEL-2 cells after 48 hr by sulforhodamine B assay; conditions: SK-MEL-2, 48 h; for TGI: read-out: pTGI (converted)
[28] = system: 786-0; experiment: Cytotoxicity against Homo sapiens (human) 786-0 cells after 48 hr by sulforhodamine B assay; conditions: 786-0, 48 h; for TGI: read-out: pTGI (converted)
[29] = system: KM12; experiment: Cytotoxicity against Homo sapiens (human) KM12 cells after 48 hr by sulforhodamine B assay; conditions: KM12, 48 h; for TGI: read-out: pTGI (converted)
[30] = system: HT-29; experiment: Cytotoxicity against Homo sapiens (human) HT-29 cells after 48 hr by sulforhodamine B assay; conditions: HT-29, 48 h; for TGI: read-out: pTGI (converted)
[31] = system: SNB-75; experiment: Cytotoxicity against Homo sapiens (human) SNB75 cells after 48 hr by sulforhodamine B assay; conditions: SNB-75, 48 h; for TGI: read-out: pTGI (converted)

Cc1ccc(-c2cs/c(=N\NC(=O)c3ccc(O)cc3)n2-c2c(C)cccc2C)cc1
GI50 [1]: 30.9 µM
LC50 (concentration killing 50% of cells) [1]: > 100 µM
TGI [1]: 83.2 µM
GI50 [2]: 23.4 µM
LC50 [2]: > 100 µM
TGI [2]: > 100 µM
GI50 [3]: 25.1 µM
LC50 [3]: > 100 µM
TGI [3]: > 100 µM
GI50 [4]: 28.2 µM
LC50 [4]: > 100 µM
TGI [4]: > 100 µM
GI50 [5]: 23.4 µM
LC50 [5]: > 100 µM
TGI [5]: > 100 µM
GI50 [6]: 11.5 µM
LC50 [6]: > 100 µM
TGI [6]: 79.4 µM
GI50 [7]: 38 µM
LC50 [7]: > 100 µM
TGI [7]: > 100 µM
GI50 [8]: 19.1 µM
LC50 [8]: > 100 µM
TGI [8]: 83.2 µM
GI50 [9]: 12.9 µM
LC50 [9]: > 100 µM
TGI [9]: 63.1 µM
GI50 [10]: 14.8 µM
LC50 [10]: > 100 µM
TGI [10]: 72.4 µM
GI50 [11]: 21.4 µM
LC50 [11]: > 100 µM
TGI [11]: 69.2 µM
GI50 [12]: 20.9 µM
LC50 [12]: > 100 µM
TGI [12]: > 100 µM
GI50 [13]: 26.3 µM
LC50 [13]: > 100 µM
TGI [13]: > 100 µM
GI50 [14]: 11 µM
LC50 [14]: > 100 µM
TGI [14]: 91.2 µM
GI50 [15]: 16.2 µM
LC50 [15]: > 100 µM
TGI [15]: > 100 µM
GI50 [16]: 35.5 µM
LC50 [16]: > 100 µM
TGI [16]: > 100 µM
GI50 [17]: 9.55 µM
LC50 [17]: > 100 µM
TGI [17]: > 100 µM
GI50 [18]: 42.7 µM
LC50 [18]: > 100 µM
TGI [18]: > 100 µM
GI50 [19]: 16.6 µM
LC50 [19]: > 100 µM
TGI [19]: 95.5 µM
GI50 [20]: 20.9 µM
LC50 [20]: > 100 µM
TGI [20]: 79.4 µM
GI50 [21]: 18.6 µM
LC50 [21]: > 100 µM
TGI [21]: > 100 µM
GI50 [22]: 17 µM
LC50 (concentration killing 50% of cells) [22]: > 100 µM
TGI [22]: > 100 µM
GI50 [23]: 25.1 µM
LC50 [23]: > 100 µM
TGI [23]: > 100 µM
GI50 [24]: 28.2 µM
LC50 [24]: > 100 µM
TGI [24]: > 100 µM
GI50 [25]: 21.9 µM
LC50 [25]: > 100 µM
TGI [25]: > 100 µM
GI50 [26]: 21.9 µM
LC50 [26]: > 100 µM
TGI [26]: > 100 µM
GI50 [27]: 30.2 µM
LC50 [27]: > 100 µM
TGI [27]: 95.5 µM
GI50 [28]: 22.4 µM
LC50 [28]: > 100 µM
TGI [28]: > 100 µM
GI50 [29]: 18.2 µM
LC50 [29]: > 100 µM
TGI [29]: 89.1 µM
GI50 [30]: 17.4 µM
LC50 [30]: 83.2 µM
TGI [30]: 38 µM
GI50 [31]: 24.5 µM
LC50 [31]: > 100 µM
TGI [31]: > 100 µM

COc1ccc(-c2cs/c(=N\NC(=O)c3ccc(O)cc3)n2-c2ccc(OC)cc2OC)cc1
GI50 [1]: 7.24 µM
LC50 (concentration killing 50% of cells) [1]: > 100 µM
TGI [1]: 53.7 µM
GI50 [2]: 6.03 µM
LC50 [2]: > 100 µM
TGI [2]: > 100 µM
GI50 [3]: 6.92 µM
LC50 [3]: > 100 µM
TGI [3]: > 100 µM
GI50 [4]: 8.13 µM
LC50 [4]: > 100 µM
TGI [4]: 40.7 µM
GI50 [5]: 5.75 µM
LC50 [5]: > 100 µM
TGI [5]: 60.3 µM
GI50 [6]: 2.19 µM
LC50 [6]: > 100 µM
TGI [6]: > 100 µM
GI50 [7]: 5.37 µM
LC50 [7]: > 100 µM
TGI [7]: > 100 µM
GI50 [8]: 13.5 µM
LC50 [8]: > 100 µM
TGI [8]: 75.9 µM
GI50 [9]: 5.13 µM
LC50 [9]: > 100 µM
TGI [9]: 79.4 µM
GI50 [10]: 3.02 µM
LC50 [10]: > 100 µM
TGI [10]: 13.5 µM
GI50 [11]: 2.95 µM
LC50 [11]: > 100 µM
TGI [11]: 8.32 µM
GI50 [12]: 4.79 µM
LC50 [12]: > 100 µM
TGI [12]: > 100 µM
GI50 [13]: 4.27 µM
LC50 [13]: > 100 µM
TGI [13]: > 100 µM
GI50 [14]: 3.39 µM
LC50 [14]: > 100 µM
TGI [14]: > 100 µM
GI50 [15]: 2 µM
LC50 [15]: > 100 µM
TGI [15]: > 100 µM
GI50 [16]: 22.9 µM
LC50 [16]: > 100 µM
TGI [16]: > 100 µM
GI50 [17]: 4.68 µM
LC50 [17]: > 100 µM
TGI [17]: > 100 µM
GI50 [18]: 15.1 µM
LC50 [18]: > 100 µM
TGI [18]: > 100 µM
GI50 [19]: 4.47 µM
LC50 [19]: 85.1 µM
TGI [19]: 22.9 µM
GI50 [20]: 2.82 µM
LC50 [20]: > 100 µM
TGI [20]: 9.77 µM
GI50 [21]: 10.2 µM
LC50 [21]: > 100 µM
TGI [21]: > 100 µM
GI50 [22]: 3.55 µM
LC50 (concentration killing 50% of cells) [22]: > 100 µM
TGI [22]: > 100 µM
GI50 [23]: 4.47 µM
LC50 [23]: 93.3 µM
TGI [23]: 89.1 µM
GI50 [24]: 6.92 µM
LC50 [24]: > 100 µM
TGI [24]: 38 µM
GI50 [25]: 3.8 µM
LC50 [25]: 85.1 µM
TGI [25]: 15.8 µM
GI50 [26]: 5.13 µM
LC50 [26]: 63.1 µM
TGI [26]: 20.4 µM
GI50 [27]: 4.9 µM
LC50 [27]: > 100 µM
TGI [27]: 72.4 µM
GI50 [28]: 4.07 µM
LC50 [28]: > 100 µM
TGI [28]: 26.3 µM
GI50 [29]: 2.63 µM
LC50 [29]: 87.1 µM
TGI [29]: 8.51 µM
GI50 [30]: 3.63 µM
LC50 [30]: > 100 µM
TGI [30]: 17 µM
GI50 [31]: 22.9 µM
LC50 [31]: > 100 µM
TGI [31]: > 100 µM

— ChEMBL document CHEMBL3046521, “Synthesis and antitumor activity of (4-hydroxyphenyl)[5-substituted alkyl/aryl)-2-thioxo-1,3,4-thiadiazol-3-yl]methanone and [(3,4-disubstituted)-1,3-thiazol-2ylidene]-4-hydroxybenzohydrazide” (2011)
